Laboratory results published in patent US10611740B2, “Aryl dihydro-2H-benzo[b][1,4]oxazine sulfonamide and related compounds for use as agonists of RORγ and the treatment of disease” (Lycera Corporation, priority 2015, dated 2020).

Legend:
[1] = molecular target: T1, Gal4-RORγ-LBD (Homo sapiens, UniProt P51449); assay: Gal4-RORγ Luciferase Reporter Assay in HEK-293T Cells; format: cell-based; details: HEK-293 cells
T1 construct: expressed in transfected cells; host or cells: HEK-293 cells (pcDNA3.1neo plasmid)
T1 sequence (P51449 269-508 limits assumed): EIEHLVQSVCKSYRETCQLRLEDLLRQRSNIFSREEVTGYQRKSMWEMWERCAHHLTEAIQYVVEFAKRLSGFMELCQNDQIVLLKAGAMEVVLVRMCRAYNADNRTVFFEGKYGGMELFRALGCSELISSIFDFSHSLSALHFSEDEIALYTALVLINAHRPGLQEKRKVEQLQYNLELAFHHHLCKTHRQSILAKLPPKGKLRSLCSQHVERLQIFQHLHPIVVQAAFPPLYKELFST
Outline: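 In transfected HEK-293 cells (Gal4-RORγ-LBD, Gal4-luciferase), test agents with 2 μM ursolic acid were incubated overnight at 37 °C before luminescent detection. Values are relative to the ursolic-acid-free, compound-free signal (100).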

[2] = molecular target: T2, RORγ-LBD (Homo sapiens, UniProt P51449); assay: RORγ-Ligand Binding Domain (LBD) TR-FRET Assay; format: biochemical;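 on TR-FRET Assay Max Response: 665/615 nm ratio relative to signal without ursolic acid or compound set at 100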
T2 construct: made in house; host or cells: SF9 cells (baculovirus)
T2 sequence (P51449 269-508 limits assumed): T1 sequence (P51449 269-508 limits assumed)
Outline: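 SF9 lysate containing His-RORγ-LBD, ~3 nM final; coactivator peptide biotin-SRC1 LXXLL, 200 nM final; ursolic acid 2 μM final; DMSO 1% final; Tris pH 7.0 buffer with KCl, EDTA, DTT, BSA. TR-FRET format.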

[3] = luciferase reporter, with 2 μM ursolic acid

EC50 ([1]; 2 μM ursolic acid) [nM] | EC50 [2] [nM] | EC50 [1, 3] [nM] | Structure (SMILES) | Gal4-RORγ Assay Max Response ([1]; 2 μM ursolic acid) | TR-FRET Assay Max Response [2] | Gal4-RORγ Assay Max Response [1, 3]
 | < 500 | < 500 | O=C(O)CC[C@H]1CN(S(=O)(=O)c2cccc(C(F)(F)F)c2)c2cc(-c3cccc(C(F)(F)F)c3)ccc2O1 [Compound 2G, (S)-3-(6-(3-(trifluoromethyl)phenyl)-4-((3-(trifluoromethyl)phenyl)-sulfonyl)-3,4-dihydro-2H-benzo[b][1,4]oxazin-2-yl)propanoic acid] |  | *** (The symbol “***” indicates a value in the range of greater than 150 to 200) | *** (The symbol “***” indicates a value in the range of greater than 150 to 200)
 | < 500 | 500 to 5000 | O=C(O)CC[C@H]1CN(S(=O)(=O)c2cccc(C(F)(F)F)c2)c2cc(-c3ccccc3C(F)(F)F)ccc2O1 [Compound 2BM, (S)-3-(6-(2-(trifluoromethyl)-phenyl)-4-((3-(trifluoromethyl)-phenyl)sulfonyl)-3,4-dihydro-2H-benzo[b][1,4]oxazin-2-yl)propanoic acid] |  | *** (The symbol “***” indicates a value in the range of greater than 150 to 200) | ** (The symbol “**” indicates a value in the range of greater than 90 to 150)
< 500 | < 500 |  | CC(C)(C[C@H]1CN(S(=O)(=O)c2cccc(C(F)(F)F)c2)c2cc(-c3cccc(Cl)c3)ccc2O1)C(=O)O [Compound 32W, (S)-3-(6-(3-chlorophenyl)-4-((3-(trifluoromethyl)phenyl)sulfonyl)-3,4-dihydro-2H-benzo[b][1,4]-oxazin-2-yl)-2,2-dimethyl-propanoic acid] | ** (The symbol “**” indicates a value in the range of greater than 90 to 150) | *** (The symbol “***” indicates a value in the range of greater than 150 to 200) | 
 | < 500 | < 500 | O=C(O)CC[C@H]1CN(S(=O)(=O)c2cccc(C(F)(F)F)c2)c2cc(-c3cccc(Cl)c3)c(Cl)cc2O1 [Compound 7, (S)-3-(7-chloro-6-(3-chlorophenyl)-4-((3-(trifluoromethyl)phenyl)sulfonyl)-3,4-dihydro-2H-benzo[b][1,4]oxazin-2-yl)propanoic acid] |  | **** (The symbol “****” indicates a value greater than 200) | ** (The symbol “**” indicates a value in the range of greater than 90 to 150)
 | < 500 | < 500 | COc1c(F)cc(F)cc1-c1ccc2c(c1)N(S(=O)(=O)c1cccc(C(F)(F)F)c1)C[C@H](CCC(=O)O)O2 [Compound 2BC, (S)-3-(6-(3,5-difluoro-2-methoxyphenyl)-4-((3-(trifluoromethyl)phenyl)-sulfonyl)-3,4-dihydro-2H-benzo[b][1,4]oxazin-2-yl)propanoic acid] |  | **** (The symbol “****” indicates a value greater than 200) | *** (The symbol “***” indicates a value in the range of greater than 150 to 200)

Continued, molecule first:

Structure (SMILES) | EC50 ([1]; 2 μM ursolic acid) [nM] | EC50 [2] [nM] | EC50 [1, 3] [nM] | Gal4-RORγ Assay Max Response ([1]; 2 μM ursolic acid) | TR-FRET Assay Max Response [2] | Gal4-RORγ Assay Max Response [1, 3]
CC(C)(C[C@H]1CN(S(=O)(=O)c2cccc(C(F)(F)F)c2)c2cc(-c3cc(F)ccc3F)ccc2O1)NS(C)(=O)=O [Compound 30DE, (S)-N-(1-(6-(2,5-difluoro-phenyl)-4-((3-(trifluoromethyl)-phenyl)sulfonyl)-3,4-dihydro-2H-benzo[b][1,4]oxazin-2-yl)-2-methylpropan-2-yl)methane-sulfonamide] | < 500 | < 500 |  | * (The symbol “*” indicates a value in the range of 25 to 90) | *** (The symbol “***” indicates a value in the range of greater than 150 to 200) | 
CC(=O)N[C@H]1C[C@](C[C@H]2CN(S(=O)(=O)c3cccc(C(F)(F)F)c3)c3cc(-c4cc(F)ccc4F)ccc3O2)(C(=O)O)C1 [Compound 89B, (1r,3S)-3-acetamido-1-(((S)-6-(2,5-difluorophenyl)-4-((3-(trifluoro-methyl)phenyl)sulfonyl)-3,4-dihydro-2H-benzo[b][1,4]oxazin-2-yl)methyl)cyclobutane-1-carboxylic acid] | 500 to 5000 | < 500 |  | ** (The symbol “**” indicates a value in the range of greater than 90 to 150) | ** (The symbol “**” indicates a value in the range of greater than 90 to 150) | 
O=C(O)CC[C@H]1CN(S(=O)(=O)c2cccc(C(F)(F)F)c2)c2cc(-c3ncc4ccccn34)ccc2O1 [Compound 4N, (S)-3-(6-(imidazo[1,5-a]pyridin-3-yl)-4-((3-(trifluoromethyl)-phenyl)sulfonyl)-3,4-dihydro-2H-benzo[b][1,4]oxazin-2-yl)propanoic acid] |  | < 500 | 500 to 5000 |  | **** (The symbol “****” indicates a value greater than 200) | ** (The symbol “**” indicates a value in the range of greater than 90 to 150)
COc1cccc(C#N)c1-c1ccc2c(c1)N(S(=O)(=O)c1cccc(C(F)(F)F)c1)C[C@H](CCC(=O)O)O2 [Compound 2BJ, (S)-3-(6-(2-cyano-6-methoxy-phenyl)-4-((3-(trifluoromethyl)-phenyl)sulfonyl)-3,4-dihydro-2H-benzo[b][1,4]oxazin-2-yl)propanoic acid] |  | > 10000 | > 10000 |  |  | ** (The symbol “**” indicates a value in the range of greater than 90 to 150)
O=C(O)CC[C@H]1CN(S(=O)(=O)c2cc(C(F)(F)F)cnc2OCCO)c2cc(-c3cccc(Cl)c3)ccc2O1 [Compound 6G] |  | < 500 | 500 to 5000 |  | **** (The symbol “****” indicates a value greater than 200) | ** (The symbol “**” indicates a value in the range of greater than 90 to 150)
O=c1[nH]nc(CC[C@H]2CN(S(=O)(=O)c3cccc(C(F)(F)F)c3)c3cc(-c4cccc(C(F)(F)F)n4)ccc3O2)o1 [Compound 28A, (S)-5-(2-(4-((3-(trifluoromethyl)-phenyl)sulfonyl)-6-(6-(trifluoromethyl)pyridin-2-yl)-3,4-dihydro-2H-benzo[b][1,4]oxazin-2-yl)ethyl)-1,3,4-oxadiazol-2(3H)-one] |  | < 500 | < 500 |  | **** (The symbol “****” indicates a value greater than 200) | ** (The symbol “**” indicates a value in the range of greater than 90 to 150)
CC(C)(C[C@H]1CN(S(=O)(=O)c2cccc(C(F)(F)F)c2)c2cc(-c3cccc(F)c3C(F)(F)F)ccc2O1)C(=O)O [Compound 32BC, (S)-3-(6-(3-fluoro-2-(trifluoromethyl)phenyl)-4-((3-(trifluoromethyl)phenyl)sulfonyl)-3,4-dihydro-2H-benzo[b][1,4]oxazin-2-yl)-2,2-dimethylpropanoic acid] | < 500 | < 500 |  | ** (The symbol “**” indicates a value in the range of greater than 90 to 150) | ** (The symbol “**” indicates a value in the range of greater than 90 to 150) | 
CC(C)(C)OC(=O)NCC[C@H]1CN(S(=O)(=O)c2cccc(C(F)(F)F)c2)c2cc(-c3cc(F)ccc3F)ccc2O1 [Compound 12, tert-butyl (S)-(2-(6-(2,5-difluorophenyl)-4-((3-(trifluoromethyl)phenyl)sulfonyl)-3,4-dihydro-2H-benzo[b][1,4]oxazin-2-yl)ethyl)carbamate] |  | < 500 | < 500 |  | **** (The symbol “****” indicates a value greater than 200) | * (The symbol “*” indicates a value in the range of 25 to 90)
O=C(O)[C@H]1C[C@@H]1[C@H]1CN(S(=O)(=O)c2cccc(C(F)(F)F)c2)c2cc(-c3cc(F)ccc3F)ccc2O1 [Compound 54, (1S,2S)-2-((S)-6-(2,5-difluorophenyl)-4-((3-(trifluoromethyl)phenyl)sulfonyl)-3,4-dihydro-2H-benzo[b][1,4]oxazin-2-yl)cyclopropane-1-carboxylic acid] | 500 to 5000 | < 500 |  | ** (The symbol “**” indicates a value in the range of greater than 90 to 150) | ** (The symbol “**” indicates a value in the range of greater than 90 to 150) | 
COc1cccc(-c2ccc3c(c2)N(S(=O)(=O)c2cccc(C(F)(F)F)c2)C[C@H](CC(C)(C)C(=O)O)O3)c1 [Compound 32B, (S)-3-(6-(3-methoxyphenyl)-4-((3-(trifluoromethyl)phenyl)sulfonyl)-3,4-dihydro-2H-benzo[b][1,4]oxazin-2-yl)-2,2-dimethylpropanoic acid] |  | < 500 | < 500 |  | *** (The symbol “***” indicates a value in the range of greater than 150 to 200) | ** (The symbol “**” indicates a value in the range of greater than 90 to 150)
